Source: patent US9309227B2, “N-biphenylmethylbenzimidazole modulators of PPARG” (The Scripps Research Institute, priority 2011, dated 2016)

Assays:
PPARG [1] = test: Cell-based transactivation assay (PPRE-luciferase reporter co-transfected with PPARG in COS-1 cells); design: species or system human or mouse; settings: COS-1 cells
Procedure: (§1) Cell-Based Transactivation Assay:
(§2) PPRE is a DNA that contains a binding site for PPARG; thus PPRE is a PPAR response element, used herein as a promoter reporter. The binding site is a DR1 response element with the sequence AGGTCA repeated 3 times in tandem and then fused to a construct for luciferase.
(§3) Thus, PPRE is the basis of the cell based transactivation assay described below. The plasmid DNA is co-transfected along with a plasmid for PPARG into COS-1 cells. After an overnight incubation, cells are treated with DMSO or compounds.
(§4) Confluent COS-1 cells were transfected with 4.5 μg murine PPARg2-pSV Sport. or full-length human PPARg-pSport6, 4.5 μg 3×PPRE-luciferase reporter and 27 μL X-treme Gene 9 transfection reagent in serum-free opti-mem media (Gibco), followed by overnight incubation at 37° C., 5% CO2. Transfected cells were plated in white Perkin Elmer 384-well plates and incubated 4 hours. […] After 18 hour incubation, treated cells were developed with Brite Lite Plus (Perkin Elmer) and read in 384-well Luminescence Perkin Elmer En Vision Multilabel plate reader. Graphs were plotted in triplicate in GraphPad Prism Software as fold change of treated cells over DMSO control cells.

PPARG [2] = target: T1, PPARG (Homo sapiens, UniProt P37231); test: Gal 4 assay (ED50 and % act); type: cell-based; settings: for activation at 1 µM: read-out: GL 4% act 1 μM; for activation at 10 µM: read-out: GL 4% act 10 μM
T1 sequence (P37231 204-505): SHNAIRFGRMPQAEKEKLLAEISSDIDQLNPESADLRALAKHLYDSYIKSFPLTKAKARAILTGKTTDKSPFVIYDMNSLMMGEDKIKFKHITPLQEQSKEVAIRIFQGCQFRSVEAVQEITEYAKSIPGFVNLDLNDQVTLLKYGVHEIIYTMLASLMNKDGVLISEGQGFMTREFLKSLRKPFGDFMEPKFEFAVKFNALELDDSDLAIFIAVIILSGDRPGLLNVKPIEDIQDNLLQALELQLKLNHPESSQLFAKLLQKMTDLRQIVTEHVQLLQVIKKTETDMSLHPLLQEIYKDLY

GST-PPARG-LBD = target: T2, GST-PPARG-LBD (Homo sapiens, UniProt P37231); test: Lanthascreen PPARG competitive binding assay (Invitrogen); settings: Table 3; read-out: IC50 (nM) Lantha
T2 construct: A mixture of 5 nM GST-PPARG-LBD; purchased Invitrogen
T2 sequence (P37231 238-503 limits assumed): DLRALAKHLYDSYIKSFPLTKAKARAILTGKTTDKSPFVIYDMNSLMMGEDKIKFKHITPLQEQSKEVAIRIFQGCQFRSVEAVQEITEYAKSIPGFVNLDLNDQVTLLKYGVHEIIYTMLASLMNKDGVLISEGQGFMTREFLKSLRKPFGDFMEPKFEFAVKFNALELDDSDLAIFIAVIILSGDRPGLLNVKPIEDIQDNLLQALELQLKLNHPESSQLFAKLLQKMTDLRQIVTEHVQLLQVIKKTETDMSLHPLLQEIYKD
Procedure: Lanthascreen PPARG Competitive Binding Assay (Invitrogen)
The assay was performed according to manufacturer protocol. A mixture of 5 nM GST-PPARG-LBD, 5 nM Tb-GST-antibody, […] Pan-PPAR Green, and serial dilutions of the experimental compound, beginning at 10 μM downwards, was added to wells of black 384-well low-volume plates (Greiner) to a total volume of 18 μL. All dilutions were made in TR-FRET assay buffer C. DMSO at 2% final concentration was used as a no-ligand control. Experiment was performed in triplicate, and incubated tier 2 hours in the dark prior to assay read in Perkin Elmer ViewLux ultra HTS microplate reader. FRET signal was measured by excitation at 340 nm and emission at 520 nm for fluorescein and […] for terbium. Fold change over DMSO was calculated using GraphPad Prism Software (La Jolla, Calif.) by calculating 520 nm/490 nm ratio. Graphs were plotted as fold change of FRET signal for compound treatment over DMSO-only control.

PPARG [3] = target: T3, PPARG (UniProt P37231); test: Cell-based transactivation assay (PPRE-luciferase reporter co-transfected with PPARG in COS-1 cells); design: species or system human or mouse
T3 construct: PPRE % act 1 μM; other: 1 μM
T3 sequence (P37231 1-505): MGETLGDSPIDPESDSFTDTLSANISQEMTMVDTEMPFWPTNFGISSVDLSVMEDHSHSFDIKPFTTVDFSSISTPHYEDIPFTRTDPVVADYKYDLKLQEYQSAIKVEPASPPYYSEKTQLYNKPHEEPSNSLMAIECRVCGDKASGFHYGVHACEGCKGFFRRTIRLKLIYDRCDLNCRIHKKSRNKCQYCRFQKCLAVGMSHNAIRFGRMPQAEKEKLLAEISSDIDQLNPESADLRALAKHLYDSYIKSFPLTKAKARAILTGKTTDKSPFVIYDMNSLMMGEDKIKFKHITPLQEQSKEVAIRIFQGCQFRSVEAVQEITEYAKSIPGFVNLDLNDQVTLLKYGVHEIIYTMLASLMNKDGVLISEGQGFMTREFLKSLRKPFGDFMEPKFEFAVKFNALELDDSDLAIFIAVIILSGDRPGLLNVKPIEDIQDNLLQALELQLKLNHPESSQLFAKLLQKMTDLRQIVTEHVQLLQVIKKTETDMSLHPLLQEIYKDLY
Procedure: as §1, §2, §3, §4

| Compound | IC50 (GST-PPARG-LBD) | other results |
| --- | --- | --- |
| CN(CCOc1ccc(CC2SC(=O)NC2=O)cc1)c1ccccn1 (centres unmarked) [rosiglitazone, reference compound] | – | activation of the PPRE reporter (PPARG [1]): about 5 fold |
| Cc1nc2cc(C(=O)N[C@@H](C)c3cccc(C(C)C)c3)ccc2n1Cc1ccc(-c2ccccc2C(O)C(F)(F)F)cc1 (stereo partly drawn) [Compound 25, N—((S)-1-(3-isopropylphenyl)ethyl)-2-methyl-1-((2′-(2,2,2-trifluoro-1-hydroxyethyl)biphenyl-4-yl)methyl)-1H-benzo[d]imidazole-5-carboxamide] | 5470 nM | – |
| CC(C)c1cccc([C@H](C)NC(=O)c2ccc3c(c2)ncn3Cc2ccc(-c3ccccc3CO)cc2)c1 [Compound 21, (S)-1-((2′-(hydroxymethyl)biphenyl-4-yl)methyl)-N-(1-(3-isopropylphenyl)ethyl)-1H-benzo[d]imidazole-5-carboxamide] | 6490 nM | – |
| CC(C)c1cccc([C@H](C)NC(=O)c2ccc3c(c2)ncn3Cc2ccc(-c3ccccc3C(O)C(F)(F)F)cc2)c1 (stereo partly drawn) [Compound 26, N—((S)-1-(3-isopropylphenyl)ethyl)-1-((2′-(2,2,2-trifluoro-1-hydroxyethyl)biphenyl-4-yl)methyl)-1H-benzo[d]imidazole-5-carboxamide] | 15700 nM | – |
| MRL24 [reference compound] | – | transactivation of the reporter, of rosiglitazone response (PPARG [1]; relative to rosiglitazone): about 25% |
| O=C(NCC1CC1)c1ccc2c(c1)ncn2Cc1ccc(-c2ccccc2C(=O)O)cc1 [Compound 17, 4′-((5 ((cyclopropylmethyl)carbamoyl)-1H-benzo[d]imidazol-1-yl)methyl)-[1,1′-biphenyl]-2-carboxylic acid] | 22100 nM | – |
| CCOCCNC(=O)c1ccc2c(c1)ncn2Cc1ccc(-c2ccccc2C(=O)O)cc1 [Compound 16, 4′-((5-(2-ethoxyethylcarbamoyl)-1H-benzo[d]imidazol-1-yl)methyl)biphenyl-2-carboxylic acid] | 9790 nM | – |
| CC(C)c1cccc([C@H](C)NC(=O)c2ccc3c(c2)ncn3Cc2ccc(-c3ccccc3C(=O)O)nc2)c1 [Compound 27, (S)-2-(5-((5-((1-(3-isopropylphenyl)ethyl)carbamoyl)-1H-benzo[d]imidazol-1-yl)methyl)pyridin-2-yl)benzoic acid] | 8740 nM | – |
| COC(=O)c1ccccc1-c1ccc(Cn2cnc3cc(C(=O)N[C@@H](C)c4cccc(C(C)C)c4)ccc32)cn1 [Compound 28, (S)-methyl 2-(5-((5-((1-(3-isopropylphenyl)ethyl)carbamoyl)-1H-benzo[d]imidazol-1-yl)methyl)pyridin-2-yl)benzoate] | 9070 nM | – |
| COCCCNC(=O)c1ccc2c(c1)ncn2Cc1ccc(-c2ccccc2C(=O)O)cc1 [Compound 15, 4′-((5-(3-methoxypropylcarbamoyl)-1H-benzo[d]imidazol-1-yl)methyl)biphenyl-2-carboxylic acid] | 15000 nM | – |

Now from value to compound, other results behind:

| IC50 (GST-PPARG-LBD) | Compound | other results |
| --- | --- | --- |
| 26.7 nM | CC(C)CCC(C)NC(=O)c1ccc2c(c1)ncn2Cc1ccc(-c2ccccc2C(=O)O)cc1 (centres unmarked) [Compound 13, 4′-((5-(5-methylhexan-2-ylcarbamoyl)-1H-benzo[d]imidazol-1-yl)methyl)biphenyl-2-carboxylic acid] | activation at 1 µM (PPARG [2]): 22.5%; activation at 10 µM (PPARG [2]): 60.5% |
| 2430 nM | CC(C)CCNC(=O)c1ccc2c(c1)ncn2Cc1ccc(-c2ccccc2C(=O)O)cc1 [Compound 18, 4′-((5-(isopentylcarbamoyl)-1H-benzo[d]imidazol-1-yl)methyl)-[1,1′-biphenyl]-2-carboxylic acid] | – |
| 102 nM | CC(C)CC(C)NC(=O)c1ccc2c(c1)ncn2Cc1ccc(-c2ccccc2C(=O)O)cc1 (centres unmarked) [Compound 14, 4′((5-((4-methylpentan-2-yl)carbamoyl)-1H-benzo[d]imidazol-1-yl)methyl)-[1,1′-biphenyl]-2-carboxylic acid] | activation at 1 µM (PPARG [2]): 7.71%; activation at 10 µM (PPARG [2]): 32.2% |
| 4800 nM | Cc1nc2cc(C(=O)N[C@@H](C)c3cccc(C(C)C)c3)ccc2n1Cc1ccc(-c2cccnc2C(=O)O)cc1 [Compound 29, (S)-3-(4-((5-(1-(3-isopropylphenyl)ethylcarbamoyl)-2-methyl-1H-benzo[d]imidazol-1-yl)methyl)phenyl)picolinic acid] | – |
| 683 nM | CC(C)c1cccc([C@H](C)NC(=O)c2ccc3c(c2)ncn3Cc2ccc(-c3ccccc3C(=O)O)cc2)c1 [Compound 23] | activation at 1 µM (PPARG [2]): 12.9%; PPRE % act 1 μM (PPARG [3]; 1 μM): −10.26%; EC50 (PPARG [3]; Table 3): 1.61 nM |
| 9.02 nM | CC(C)CC(C)NC(=O)c1ccc2ncn(Cc3ccc(-c4ccccc4C(=O)O)cc3)c2c1 (centres unmarked) [Compound 19, 4′-((6-(4-methylpentan-2-ylcarbamoyl)-1H-benzo[d]imidazol-1-yl)methyl)biphenyl-2-carboxylic acid] | – |
| 2130 nM | CC(C)c1cccc([C@H](C)NC(=O)c2ccc3c(c2)ncn3Cc2ccc(-c3cccnc3C(=O)O)cc2)c1 [Compound 24, (S)-3-(4-((5-(1-(3-isopropylphenyl)ethylcarbamoyl)-1H-benzo[d]imidazol-1-yl)methyl)phenyl)picolinic acid] | – |
| 2550 nM | CC(C)CCC(C)NC(=O)c1ccc2ncn(Cc3ccc(-c4ccccc4C(=O)O)cc3)c2c1 (centres unmarked) [Compound 20] | – |
| 1830 nM | CC(C)c1cccc([C@H](C)NC(=O)c2ccc3c(c2)ncn3Cc2ccc(-c3ccccc3C(=O)O)cc2)c1 [Compound 22, (S)-4′-((5-(1-(3-isopropylphenyl)ethylcarbamoyl)-1H-benzo[d]imidazol-1-yl)methyl)biphenyl-2-carboxylic acid] | – |
